US11458153B2, “Drug delivery composition comprising a self-assembled gelator” (The Brigham and Women's Hospital, Inc., priority 2008, dated 2022)
Entries after “also recorded” stand apart in the source; their conditions may differ.

Key:
[1] = system: mesenchymal stem cells (MSCs); assay: MSC adipogenic differentiation, Oil Red O staining; format: cell-based, human; settings: 250 μM, 23 days of induction
Procedure: (§1) Unlike typical fibroblast cell lines used for toxicity screening, cultured mesenchymal stem cells are highly sensitive to the presence of soluble factors and can often loose their capacity for multi-lineage differentiation or differentiate into non-desired lineages depending on the culture conditions. To examine the impact of the acetaminophen amphiphilic prodrugs on multi-lineage differentiation of MSCs, cells were treated with adipogenic and osteogenic induction media in presence of amphiphiles followed by respective colorimetric histological staining.
Adipogenic Differentiation. MSCs were seeded in the wells of 24 well plates, and were culture in MSC expansion media until they reach 90% confluence (note: in control samples there was no amphiphile present, whereas in experimental samples 250 μM of Apn-based amphiphile was present). Adipogenic differentiation was induced by culturing the cells for 23 days in adipogenic induction media (from Lonza—MSCs Adipogenic Single Quote kit containing h-Insulin (recombinant), L-Glutamine, Dexamethasone, Indomethacin, IBMX (3-isobuty-1-methyl-xanthine), Pen/Strep) and adipogenic maintenance media (from Lonza—MSCs Adipogenic Single Quote kit containing h-Insulin (recombinant), L-Glutamine, Pen/Strep). […] Adipogenesis was evaluated by Oil Red O staining. Following aspiration of the media, cells were washed once with PBS, and fixed in PBS with 3.7% formaldehyde for 30 min at room temperature. Following fixation cells were rinsed with distilled water for a few minutes, and incubated with isopropanol containing an Oil Red O working solution (prepared by diluting 30 mL of 0.5% isopropanol/Oil Red O solution with 20 mL of distilled water). After 45 minutes culture well were rinsed twice with distilled water and 1 mL of hematoxylin was added to each well for 1 minute followed by aspiration and washing with distilled water. The wells were viewed using an inverted phase contrast microscope.

[2] = system: mesenchymal stem cells (MSCs); assay: MSC osteogenic differentiation, alkaline phosphatase staining; format: cell-based, human; settings: 250 μM, 23 days
Procedure: as §1
Osteogenic Differentiation. MSCs were seeded in the wells of 24 well plates, and were culture in MSC expansion media until they reach 90% confluence (note: in control samples there was no amphiphile present, whereas in experimental samples 250 μM of Apn-based amphiphile was present). Osteogenic differentiation was induced by culturing the cells for 23 days in osteogenic induction media (from Lonza—MSCs Osteogenic Single Quote kit) containing dexamethasone, β-glycerophosphate, L-ascorbic acid-2-phosphate, and α-MEM. The media in both groups was changed every 3 days (note: each time while changing the media, 250 μM of Apn-based amphiphiles were added to maintain constant concentration). Osteogenesis was evaluated by cell membrane associated alkaline phosphatase activity. Alkaline phosphatase activity was examined after 23 days by carefully aspirating the media and washing the cells with PBS. The cells were fixed with 3.7% formaldehyde solution for 15 min at room temperature followed by rinsing with distilled water. 0.06% Red Violet LB salt solution in Tris HCl was added with distilled water containing DMF and Naphthol AS MX-PO4. The plates were incubated for 45 minutes at room temperature and then the wells were rinsed 3 times with distilled water and imaged under with inverted phase contrast microscope.

[3] = biological target: T1, lipase (Lipolase 100L, Type EX) (Thermomyces lanuginosus, UniProt O59952); assay: Enzyme-triggered hydrogel degradation and drug release; format: in vitro ADME
T1 construct: purchased Novozymes through Brenntag North America Lipolase 100L, Type EX
T1 sequence (O59952 23-291): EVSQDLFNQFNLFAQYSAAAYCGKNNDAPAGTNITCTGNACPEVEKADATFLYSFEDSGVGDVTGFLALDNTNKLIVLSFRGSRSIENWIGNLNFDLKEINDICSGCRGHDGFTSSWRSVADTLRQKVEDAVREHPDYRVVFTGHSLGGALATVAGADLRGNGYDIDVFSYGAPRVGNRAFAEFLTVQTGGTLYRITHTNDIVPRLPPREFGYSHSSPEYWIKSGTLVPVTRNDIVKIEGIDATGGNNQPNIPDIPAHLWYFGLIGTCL
Procedure: Encapsulation and release of curcumin was previously studied by the Ultra-Violet absorbance spectroscopy (λmax at 424 nm). Absorbance spectrum of modified Apn-7-COOH was similar to that of Apn (FIG. 6B). In this instance, enzyme-triggered single and multiple drug delivery has been carried out using two sets of hydrogel samples, i.e., hydrogels of Apn-7-COOH and Apn-8-Apn with and without curcumin. In the first set, lipase (Lipolase 100L, Type EX, lipase units 100 KLU/g) was added to the preformed hydrogel of Apn-7-COOH (2 wt %) and kept it at 37° C. which is lower than gel melting temperature. It was anticipated that lipase (esterase) would hydrolyze the ester bond of prodrug-based gelator (Apn-7-COOH) to release acetaminophen and dicarboxylic acid as the hydrogel degrades. As expected, after 48 hours the gel completely degraded and became a clear solution.
To test this further, and examine multiple (two) drugs delivery (FIGS. 6A-6E), curcumin was encapsulated in the hydrogel of Apn-7-COOH (2 wt %) and to that lipase was added and kept it at 37° C. Absorbance spectra were recorded on aliquots which were collected (after the addition of enzyme to the hydrogel) at regular intervals (FIG. 6C). […] The concentration of the enzyme used in these in vitro experiments is higher than physiological concentration of esterases (for example, physiological concentration of cholesterol esterase is 7 U/ml).
Increasing either concentration of enzyme or incubation temperature to 45° C. doubles the drug release rate, which was correlating with previous findings.
To analyze the gel degradation mechanism, another prodrug Apn-5-ether-COOH was synthesized (FIG. 2), where hydrocarbon chain (which is bearing terminal carboxylic acid) was connected to the acetaminophen through an ether bond (C—O—C) to prevent the esterolytic cleavage by lipase.

Which “adipogenic differentiation, Oil Red O (ORO) staining” value [1] does the source give for `CC(=O)Nc1ccc(OC(=O)CCCCCCC(=O)O)cc1` [Apn-7-COOH] here?
The value was “robust capacity; also recorded: equally stained for ORO”.

And the “osteogenic differentiation, alkaline phosphatase (ALP) staining” value [2]?
The value was “robust capacity; also recorded: equally stained for ALP”.

And the “time after which absorbance of released curcumin did not increase” value ([3]; curcumin released from degradation of hydrogel)?
The value was 24 h.

And the “time of first aliquots showing curcumin absorption maxima (425 nm)” value ([3]; curcumin-encapsulated hydrogel 2 wt %, lipase, 37° C.)?
Its value is 4 h.

And the “burst release of curcumin” value ([3]; curcumin-encapsulated hydrogel 2 wt %, lipase, 37° C., absorbance maxima vs time)?
The value was “absence of burst release”.

And the “products found by thin-layer chromatography after gel degradation” value ([3]; hydrogel 2 wt %, lipase, 37° C., 48 hours)?
The value was “acetaminophen and α,ω-dicarboxylicacid were generated”.

And the “time after which the gel completely degraded” value ([3]; preformed hydrogel 2 wt %, lipase added, 37° C.)?
Its value is 48 h.
